# Assay results as given in patent EP0262785A1, “N-[2-(4-carboxymethoxyphenyl)-1-methylethyl]-2-hydroxy-2-(3-chlorophenyl)ethane amine, the methyl ester, salt and stereoisomeric forms thereof” (BEECHAM GROUP PLC, priority 1986, dated 1988).
# How the values were obtained:
# Female CFLP mice = assay: Anti-hyperglycaemic activity (subcutaneous glucose load, blood glucose curve); type: in vivo; conditions: Dose 0.02 µmol/kg orally as aqueous solution, 6 mice fasted for 24 hours; glucose 1g/kg subcutaneously 30 minutes later; area over the 2 hour period compared with control mice given water
# Protocol: Female CFLP mice, weighing approximately 25 g, were fasted for 24 hours prior to the study. The compound under study was administered orally as an aqueous solution to each of 6 mice. 30 minutes later a blood sample (10µl) was obtained from the tail for the analysis of blood glucose. Immediately after taking this blood sample, glucose (1g/kg body weight) was administered subcutaneously to each mouse. 6 mice were given water as a control. Blood samples were then obtained from each mouse at 30 minute intervals for 120 minutes. Compounds that produce a significant (P<0.05) reduction of blood glucose, compared with control mice given water, at any time interval, are considered active. The area under the blood glucose curve over the 2 hour period after the administration of the glucose was calculated for the compound and compared with the value for control animals.
# Male Sprague-Dawley rats = assay: Effect on Energy Expenditure of Rats; type: in vivo; conditions: Dose 0.2 µmol/kg p.o. in water, rats deprived of food, percentage of the rate of energy expenditure of the rats dosed with water
# Protocol: Water was provided ad lib at all times. The compounds were administered orally in water to 3 or 4 rats. A further 4 rats were dosed orally with water. The rats were placed in boxes through which air was drawn and the oxygen content of the air leaving the boxes was measured. The energy expenditure of the rats was calculated for 3 hours and for 21 hours after dosing from the volume of air leaving the boxes and its oxygen content, following the principles described by J.B. de V. Weir, J. Physiol. (London) 109, 1-9 (1949). The results are expressed as a percentage of the rate of energy expenditure of the rats dosed with water.
compound,measurement,setting,value
"COC(=O)COc1ccc(C[C@@H](C)NC[C@H](O)c2cccc(Cl)c2)cc1 [Example 1, N-[2-(4-Carbomethoxymethoxyphenyl)-1-(R)-1-methylethyl-2-(R)-2-hydroxy-2-(3-chlorophenyl)ethananine, hemifumarate]",% Reduction in area under Blood Glucose Curve,Female CFLP mice,51%
same,Mean Energy Expenditure (0-3h),Male Sprague-Dawley rats; 3 hours after dosing,134 percentage
same,Mean Energy Expenditure (0-21h),Male Sprague-Dawley rats; 21 hours after dosing,111 percentage
